From PubChem BioAssay (NCI)
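Exposure lasted 48 hours, with cells grown in 96-well plates and compounds tested at five concentrations. TGI denotes the concentration required for complete inhibition of growth.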

Experiments:
Assay in all cases: NCI tumour cell line growth inhibition, 48 h
[1] = test system: 786-0 renal
[2] = test system: A498 renal
[3] = test system: A549 NSCLC
[4] = test system: ACHN renal
[5] = test system: BT-549 breast
[6] = test system: CAKI-1 renal
[7] = test system: CCRF-CEM leukemia
[8] = test system: COLO 205 colon
[9] = test system: DU-145 prostate
[10] = test system: EKVX NSCLC
[11] = test system: HCC-2998 colon
[12] = test system: HCT-116 colon
[13] = test system: HCT-15 colon
[14] = test system: HL-60(TB) leukemia
[15] = test system: HOP-62 NSCLC
[16] = test system: HOP-92 NSCLC
[17] = test system: HS 578T breast
[18] = test system: HT29 colon
[19] = test system: IGROV1 ovarian
[20] = test system: K-562 leukemia
[21] = test system: KM12 colon
[22] = test system: LOX IMVI melanoma
[23] = test system: M14 melanoma
[24] = test system: MALME-3M melanoma
[25] = test system: MCF7 breast
[26] = test system: MDA-MB-231 breast
[27] = test system: MDA-MB-435
[28] = test system: MDA-N
[29] = test system: MOLT-4 leukemia
[30] = test system: NCI-H226 lung
[31] = test system: NCI-H23 lung
[32] = test system: NCI-H460 lung
[33] = test system: NCI-H522 lung
[34] = test system: NCI/ADR-RES ovarian
[35] = test system: OVCAR-3 ovarian
[36] = test system: OVCAR-4 ovarian
[37] = test system: OVCAR-5 ovarian
[38] = test system: OVCAR-8 ovarian
[39] = test system: PC-3 prostate
[40] = test system: RPMI-8226 leukemia
[41] = test system: RXF 393 renal
[42] = test system: SF-268 CNS
[43] = test system: SF-295 CNS
[44] = test system: SF-539 CNS
[45] = test system: SK-MEL-2 melanoma
[46] = test system: SK-MEL-28 melanoma
[47] = test system: SK-MEL-5 melanoma
[48] = test system: SK-OV-3 ovarian
[49] = test system: SN12C renal
[50] = test system: SNB-19 CNS
[51] = test system: SNB-75 CNS
[52] = test system: SR leukemia
[53] = test system: SW-620 colon
[54] = test system: T-47D breast
[55] = test system: TK-10 renal
[56] = test system: U251 CNS
[57] = test system: UACC-257 melanoma
[58] = test system: UACC-62 melanoma
[59] = test system: UO-31 renal

Measured: TGI

O=C(O)CCC(=O)C(=O)O
> 100 µM: all assays above
